According to ChEMBL document CHEMBL6103622 (J Med Chem, 2025):
Activity calls are given as the source filed them. No cut-off for these calls is given here.

Legend:
[1] = target: T1, Macrophage colony-stimulating factor 1 receptor (Mus musculus) (UniProt P09581); experiment: Inhibition of CSF-1R signaling pathway activation in female C57BL/6 mouse BMDM cells assessed as reduction in CSF-1R phosphorylation preincubated with compounds for 4 hrs followed by M-CSF stimulation and measured after 30 mins by Western blot analysis; format: cell-based; details: dose 10-100 nM, time 4.5 hrs
T1 sequence (whole entry): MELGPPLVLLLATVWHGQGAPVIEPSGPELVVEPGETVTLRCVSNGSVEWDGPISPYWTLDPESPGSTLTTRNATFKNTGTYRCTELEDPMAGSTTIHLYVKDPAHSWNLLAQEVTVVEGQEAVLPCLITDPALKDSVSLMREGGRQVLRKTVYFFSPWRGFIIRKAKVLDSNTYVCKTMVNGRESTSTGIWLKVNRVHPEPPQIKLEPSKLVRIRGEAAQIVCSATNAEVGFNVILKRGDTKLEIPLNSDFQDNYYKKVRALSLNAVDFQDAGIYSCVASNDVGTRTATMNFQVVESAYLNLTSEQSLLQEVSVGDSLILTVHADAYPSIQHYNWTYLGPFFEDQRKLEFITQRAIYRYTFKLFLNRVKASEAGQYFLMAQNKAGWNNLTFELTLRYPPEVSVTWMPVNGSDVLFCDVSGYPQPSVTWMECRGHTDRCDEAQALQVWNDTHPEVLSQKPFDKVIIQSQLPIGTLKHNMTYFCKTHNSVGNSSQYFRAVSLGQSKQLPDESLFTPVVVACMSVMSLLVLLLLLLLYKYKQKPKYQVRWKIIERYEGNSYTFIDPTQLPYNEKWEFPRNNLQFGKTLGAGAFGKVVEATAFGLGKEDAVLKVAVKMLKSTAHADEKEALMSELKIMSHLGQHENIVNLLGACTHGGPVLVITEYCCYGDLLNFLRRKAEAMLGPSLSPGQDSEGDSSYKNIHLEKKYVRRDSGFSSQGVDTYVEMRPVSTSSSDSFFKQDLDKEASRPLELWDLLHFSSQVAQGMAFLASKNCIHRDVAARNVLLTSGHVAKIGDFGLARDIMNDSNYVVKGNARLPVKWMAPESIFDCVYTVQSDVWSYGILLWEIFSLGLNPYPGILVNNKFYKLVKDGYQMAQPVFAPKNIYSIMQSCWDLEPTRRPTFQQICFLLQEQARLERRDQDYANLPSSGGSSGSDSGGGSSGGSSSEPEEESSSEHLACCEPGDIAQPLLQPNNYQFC

[2] = target: T2, Macrophage colony-stimulating factor 1 receptor (Homo sapiens, UniProt P07333); experiment: Binding affinity to recombinant CSF-1R (unknown origin) assessed as equilibrium dissociation constant by SPR analysis
T2 sequence (P07333 whole entry): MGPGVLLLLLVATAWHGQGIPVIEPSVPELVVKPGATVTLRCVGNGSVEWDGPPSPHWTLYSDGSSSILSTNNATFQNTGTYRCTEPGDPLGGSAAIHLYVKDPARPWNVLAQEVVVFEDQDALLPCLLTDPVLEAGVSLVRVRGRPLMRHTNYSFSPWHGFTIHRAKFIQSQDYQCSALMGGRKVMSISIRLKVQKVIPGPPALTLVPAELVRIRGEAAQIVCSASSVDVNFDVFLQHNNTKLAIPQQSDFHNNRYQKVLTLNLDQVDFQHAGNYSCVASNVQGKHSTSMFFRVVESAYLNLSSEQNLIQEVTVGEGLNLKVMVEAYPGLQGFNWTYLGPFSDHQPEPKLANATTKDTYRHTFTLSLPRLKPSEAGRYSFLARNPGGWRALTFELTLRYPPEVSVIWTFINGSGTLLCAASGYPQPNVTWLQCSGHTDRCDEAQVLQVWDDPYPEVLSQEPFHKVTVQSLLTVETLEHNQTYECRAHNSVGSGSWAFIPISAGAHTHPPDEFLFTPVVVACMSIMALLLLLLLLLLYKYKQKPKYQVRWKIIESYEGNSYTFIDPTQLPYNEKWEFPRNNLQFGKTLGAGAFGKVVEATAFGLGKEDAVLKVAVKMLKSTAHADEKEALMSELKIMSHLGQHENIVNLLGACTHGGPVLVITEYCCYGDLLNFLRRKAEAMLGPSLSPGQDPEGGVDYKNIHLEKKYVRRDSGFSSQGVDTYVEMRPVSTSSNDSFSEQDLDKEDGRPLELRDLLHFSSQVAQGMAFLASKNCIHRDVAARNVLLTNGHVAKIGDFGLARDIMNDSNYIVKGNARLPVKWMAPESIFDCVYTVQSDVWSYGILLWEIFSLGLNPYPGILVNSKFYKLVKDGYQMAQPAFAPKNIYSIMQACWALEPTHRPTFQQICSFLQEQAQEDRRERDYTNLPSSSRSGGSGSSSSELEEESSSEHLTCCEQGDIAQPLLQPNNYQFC

[3] = target: T2, Macrophage colony-stimulating factor 1 receptor; experiment: Binding affinity to recombinant CSF-1R (unknown origin) assessed as association rate constant by SPR analysis
BMDM [4] = experiment: Induction of repolarization of M2 like macrophage into M1 phenotype in female C57BL/6 mouse BMDM cells assessed as increase in Il1 mRNA expression at 10 to 100 nM stimulated with mouse IL4/IL-13 for 24 hrs followed by compound addition and measured after 24 hrs by qPCR analysis; format: functional, cell-based; details: dose 10-100 nM
BMDM [5] = experiment: Induction of repolarization of M2 like macrophage into M1 phenotype in female C57BL/6 mouse BMDM cells assessed as increase in Il6 mRNA expression at 10 to 100 nM stimulated with mouse IL4/IL-13 for 24 hrs followed by compound addition and measured after 24 hrs by qPCR analysis; format: functional, cell-based; details: dose 10-100 nM
BMDM [6] = experiment: Induction of repolarization of M2 like macrophage into M1 phenotype in female C57BL/6 mouse BMDM cells assessed as decrease in Arg1 mRNA expression at 10 to 100 nM stimulated with mouse IL4/IL-13 for 24 hrs followed by compound addition and measured after 24 hrs by qPCR analysis; format: functional, cell-based; details: dose 10-100 nM
BMDM [7] = experiment: Induction of repolarization of M2 like macrophage into M1 phenotype in female C57BL/6 mouse BMDM cells assessed as decrease in Mrc1 mRNA expression at 10 to 100 nM stimulated with mouse IL4/IL-13 for 24 hrs followed by compound addition and measured after 24 hrs by qPCR analysis; format: functional, cell-based; details: dose 10-100 nM
MC-38 [8] = experiment: Induction of apoptosis in mouse MC38 cells cocultured with condition medium of M2 macrophages assessed as early apoptotic cells at 10 nM by Annexin V/PI staining based flow cytometric analysis (reference value: 3.16 %); format: functional
MC-38 [9] = experiment: Induction of apoptosis in mouse MC38 cells cocultured with condition medium of M2 macrophages assessed as early apoptotic cells at 30 nM by Annexin V/PI staining based flow cytometric analysis (reference value: 3.16 %); format: functional
MC-38 [10] = experiment: Induction of apoptosis in mouse MC38 cells cocultured with condition medium of M2 macrophages assessed as late apoptotic cells at 30 nM by Annexin V/PI staining based flow cytometric analysis (reference value: 1.66 %); format: functional
MC-38 [11] = experiment: Inhibition of cell viability in mouse MC38 cells at 10 to 100 nM by MTT assay; format: functional, cell-based; details: dose 10-100 nM
[12] = system: Colorectal cancer organoid; experiment: Antitumor activity against patient derived CRC organoids cocultured with IL-4/13 stimulated M2 macrophages assessed as lytic death state at 10 to 100 nM incubated for 72 hrs; format: functional, tissue-based; details: Homo sapiens, Colorectum, dose 10-100 nM
[13] = system: Colorectal cancer organoid; experiment: Antitumor activity against patient derived CRC organoids assessed as reduction in number of organoids at 10 to 100 nM incubated for 72 hrs; format: functional, tissue-based; details: Homo sapiens, Colorectum, dose 10-100 nM
[14] = system: Colorectal cancer organoid; experiment: Antitumor activity against patient derived CRC organoids assessed as change in morphology of organoids at 10 to 100 nM incubated for 72 hrs; format: functional, tissue-based; details: Homo sapiens, Colorectum, dose 10-100 nM
[15] = target: BDNF/NT-3 growth factors receptor (Homo sapiens) (UniProt Q16620); experiment: Inhibition of TRKB (unknown origin) at 1 uM
Chain of BDNF/NT-3 growth factors receptor (Homo sapiens) (Q16620 32-822 limits assumed): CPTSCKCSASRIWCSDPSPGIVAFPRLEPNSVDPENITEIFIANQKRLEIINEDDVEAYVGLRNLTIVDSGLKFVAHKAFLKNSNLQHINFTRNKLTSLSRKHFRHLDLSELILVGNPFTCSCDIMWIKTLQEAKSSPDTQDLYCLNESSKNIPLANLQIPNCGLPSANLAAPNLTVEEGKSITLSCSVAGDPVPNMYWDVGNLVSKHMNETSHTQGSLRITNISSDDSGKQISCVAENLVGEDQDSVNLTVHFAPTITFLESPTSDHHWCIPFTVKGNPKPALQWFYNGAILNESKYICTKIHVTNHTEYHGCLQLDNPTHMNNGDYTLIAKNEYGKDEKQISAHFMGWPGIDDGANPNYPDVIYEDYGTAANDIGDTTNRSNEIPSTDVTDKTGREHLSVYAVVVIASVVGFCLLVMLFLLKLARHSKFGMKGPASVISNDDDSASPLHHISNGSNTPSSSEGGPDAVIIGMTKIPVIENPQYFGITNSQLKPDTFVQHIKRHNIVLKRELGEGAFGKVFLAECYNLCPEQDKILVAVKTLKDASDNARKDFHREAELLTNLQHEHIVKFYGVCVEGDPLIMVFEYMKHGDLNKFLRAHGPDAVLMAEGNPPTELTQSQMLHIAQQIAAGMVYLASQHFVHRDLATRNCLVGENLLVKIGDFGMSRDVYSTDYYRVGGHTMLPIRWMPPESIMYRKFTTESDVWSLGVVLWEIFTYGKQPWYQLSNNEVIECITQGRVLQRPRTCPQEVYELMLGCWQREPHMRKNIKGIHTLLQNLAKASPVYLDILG

[16] = target: NT-3 growth factor receptor (Homo sapiens) (UniProt Q16288); experiment: Inhibition of TRKC (unknown origin) at 1 uM
Chain of NT-3 growth factor receptor (Homo sapiens) (Q16288 32-839 limits assumed): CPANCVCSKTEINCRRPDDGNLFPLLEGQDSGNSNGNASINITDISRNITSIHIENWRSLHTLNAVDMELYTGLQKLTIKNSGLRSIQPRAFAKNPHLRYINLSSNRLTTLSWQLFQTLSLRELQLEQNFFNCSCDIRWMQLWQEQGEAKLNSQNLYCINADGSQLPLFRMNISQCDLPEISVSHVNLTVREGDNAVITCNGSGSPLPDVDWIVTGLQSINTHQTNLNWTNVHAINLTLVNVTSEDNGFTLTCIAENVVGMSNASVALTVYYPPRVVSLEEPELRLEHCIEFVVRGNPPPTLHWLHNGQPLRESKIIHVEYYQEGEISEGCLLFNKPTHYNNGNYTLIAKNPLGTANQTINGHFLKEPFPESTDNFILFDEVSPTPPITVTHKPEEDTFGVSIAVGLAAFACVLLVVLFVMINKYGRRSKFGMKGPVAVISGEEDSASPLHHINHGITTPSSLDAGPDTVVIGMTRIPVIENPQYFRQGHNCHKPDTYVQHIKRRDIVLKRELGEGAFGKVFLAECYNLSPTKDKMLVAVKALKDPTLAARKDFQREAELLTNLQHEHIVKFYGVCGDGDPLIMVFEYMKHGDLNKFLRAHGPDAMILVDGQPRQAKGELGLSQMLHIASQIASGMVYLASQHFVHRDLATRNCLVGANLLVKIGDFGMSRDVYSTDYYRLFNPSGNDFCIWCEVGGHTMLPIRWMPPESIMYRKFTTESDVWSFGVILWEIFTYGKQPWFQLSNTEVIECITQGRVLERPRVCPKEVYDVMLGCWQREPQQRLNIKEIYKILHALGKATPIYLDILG

[17] = Apparent volume of distribution in Sprague-Dawley rat at 1 mg/kg, iv; format: ADME, organism-based; details: in vivo, read-out: Vz
[18] = AUC (0 to infinity) in Sprague-Dawley rat at 10 mg/kg, po; format: ADME, organism-based; details: in vivo
MC-38 [19] = experiment: Antitumor activity against mouse MC38 cells allografted in C57BL/6 mouse model assessed as reduction in tumor weight at 20 mg/kg, ip administered once daily for 14 days relative to control; format: functional; design: scale not given: the % may be the effect or the level left; details: time 14 day
MC-38 [20] = experiment: Antitumor activity against mouse MC38 cells allografted in C57BL/6 mouse model assessed as downregulation of Chil3l mRNA expression in tumor at 10 to 20 mg/kg, ip administered once daily for 14 days by qPCR analysis; format: functional, organism-based; details: dose 10-20 mg/kg, time 14.0 day
MC-38 [21] = experiment: Antitumor activity against mouse MC38 cells allografted in C57BL/6 mouse model assessed as upregulation of Tnf mRNA expression in tumor at 10 to 20 mg/kg, ip administered once daily for 14 days by qPCR analysis; format: functional, organism-based; details: dose 10-20 mg/kg, time 14.0 day
MC-38 [22] = experiment: Antitumor activity against mouse MC38 cells allografted in C57BL/6 mouse model assessed as upregulation of Il6 mRNA expression in tumor at 10 to 20 mg/kg, ip administered once daily for 14 days by qPCR analysis; format: functional, organism-based; details: dose 10-20 mg/kg, time 14.0 day

- inhibition [1]: Dose-dependent-effect
- Kd [2]: 2.96 nM
- Ka [3]: 1.07 10^5/Ms
- inhibition [15]: Active
- inhibition [16]: Active
- Vd [17]: 3.28 L/kg
- AUC(0-inf) [18]: 4170 ng·h/mL
SMILES: Cc1nc(NC(=O)N[C@@H]2CCCC[C@H]2O)ccc1Oc1c[nH]c2ncc(Cl)cc12
- Activity (BMDM [4]): Active
- Activity (BMDM [5]): Active
- Activity (BMDM [6]): Active
- Activity (BMDM [7]): Active
- Activity (MC-38 [8]): 6.15%
- Activity (MC-38 [9]): 13.61%
- Activity (MC-38 [10]): 4.88%
- inhibition (MC-38 [11]): Minimal_effect
- Activity [12]: Active
- Activity [13]: inactive
- Activity [14]: inactive
- Activity (MC-38 [19]): 56%
- Activity (MC-38 [20]): Active
- Activity (MC-38 [21]): Active
- Activity (MC-38 [22]): Active
